Results as given in US20060149043A1, “Fluorescent lanthadine complex” (Japan Science and Technology Agency, priority 2003, published 2006).

What was measured:
[1] = Time resolved luminescence measurement of terbium (III) complexes (luminescence, lifetime, water coordination number); type: physicochemical; conditions: terbium (III) complex
Method: Compounds 8, 11 and 15 each were dissolved in dimethyl sulfoxide to prepare 10 mM stock solutions. In addition, terbium (III) chloride hexahydrate was dissolved in dimethyl sulfoxide to prepare a 10 mM stock solution. Equal volumes of the terbium (III) chloride hexahydrate solution prepared were added to the individually prepared solutions of Compounds 8, 11 and 15, and, the resulting solutions were left standing for 30 minutes at room temperature to prepare terbium (III) complexes of Compounds 8, 11 and 15. The solutions were diluted using a 100 mM HEPES buffer (pH 7.4), and the luminescences of 8 μM solutions were measured.
(§1) Luminescences were measured using a time resolved measurement. Luminescences were measured for all complexes at an excitation wavelength of 330 nm, a delay time of 0.05 ms and a gate time of 1.00 ms. In addition, the luminescence lifetimes were measured using an excitation wavelength of […], and the luminescence wavelengths were measured using 545 nm for individual terbium complexes and 615 nm for individual europium complexes [100 mM HEPES buffer (pH 7.4) in each 8 μM].
The luminescence spectra of the terbium (III) complexes of Compounds 8, 11 and 15 are shown in FIG. 11, and their luminescence life and water coordination numbers are shown in Table 1.

[2] = Time resolved luminescence measurement of europium (III) complexes (luminescence, lifetime, water coordination number); type: physicochemical; conditions: europium (III) complex
Method: Compounds 8, 11 and 15 each were dissolved in dimethylsulfoxide to prepare 10 mM stock solutions. In addition, europium (III) chloride hexahydrate was dissolved in dimethylsulfoxide to prepare a 10 mM stock solution. Equal volumes of the europium (III) chloride hexahydrate solution were added to the individually prepared solutions of Compounds 8, 11 and 15, and the resulting solutions were left standing for 30 minutes at room temperature to prepare the europium (III) complexes of the Compounds 8, 11 and 15. These solutions were diluted using 100 mM HEPES buffer solution (pH 7.4), and the luminescences of the 8 μM solutions were measured.
as §1
In addition, the luminescence spectra of the europium (III) complexes of Compounds 8, 11 and 15 are shown in FIG. 12, and their luminescence life and water coordination numbers are shown in Table 2.

[3] = 8 μM, 100 mM HEPES buffer (pH 7.4), excitation 330 nm, delay time 0.05 ms, gate time 1.00 ms

Water coordination number [1]: 1.23 | Life time (H2O) ([1]; 8 μM in 100 mM HEPES buffer (pH 7.4), luminescence wavelength 545 nm, H2O): 1.46 ms | Luminescence emission (intensity) [1, 3]: almost identical | Life time (D2O) ([1]; luminescence wavelength 545 nm, D2O): 2.55 ms | Water coordination number [2]: 1.34 | Life time (H2O) ([2]; 8 μM in 100 mM HEPES buffer (pH 7.4), luminescence wavelength 615 nm, H2O): 0.59 ms | Luminescence emission (intensity) [2, 3]: almost identical | Life time (D2O) ([2]; luminescence wavelength 615 nm, D2O): 2.38 ms
SMILES: Cc1cc(=O)[nH]c2cc(NC(=O)CN(CCN(CCN(CC(=O)O)CC(=O)O)CC(=O)O)CC(=O)O)ccc12 [DTPA-cs124]
